Results reported in patent US10857209B2, “Lysosomal acid lipase and PPAR gamma ligands as immune therapies for cancer treatment” (Indiana University Research and Technology Corporation, priority 2016, dated 2020).

What was measured:
B16 melanoma cells [1] = assay: Mouse metastasis model, pre-treated MDSCs co-injected intravenously with B16 melanoma cells; format: in vivo; conditions: two weeks
Procedure: The tumor growth and metastasis model were described in Zhao et al., Oncogene. 2015; 34:1938-48. MDSCs and B16 melanoma cells were collected separately. A pilot study was performed to determine the best ratio between MDSCs and B16 melanoma cells. To test the tumor growth potential, 6×10^5 pre-treated MDSCs and 2×10^5 B16 melanoma cells were mixed, centrifuged and re-suspended in 100 μL PBS, and then injected subcutaneously into the flank region of 3-month old recipient lal^+/+ mice. Tumor volume (length×width^2×π/6) was monitored every week for 4 weeks. To test the metastasis potential, 2×10^6 pre-treated MDSCs and 5×10^5 B16 melanoma cells were mixed and incubated at 37° C., 5% CO2 for 30 minutes. After the incubation, cells were centrifuged, re-suspended, and injected intravenously into 3-month old lal^+/+ mice. Two weeks after the injection, the mice were sacrificed and the lungs were inflated with 4% paraformaldehyde for examination of metastasis.
The harvested lungs were fixed with 4% paraformaldehyde in PBS at 4° C. for overnight. After fixation and embedding in paraffin, tissue sections were cut to 5 μm thick. Hematoxylin and eosin (H&E) staining and immunohistochemical (IHC) staining with anti-Ki67 antibody were performed by the Histological Core Facility, Department of Pathology and Laboratory Medicine, Indiana University. Images were taken by Olympus microscopy image system (Olympus, Tokyo, Japan).

B16 melanoma cells [2] = assay: B16 melanoma metastasis in LAP-Tg/KO mice; format: in vivo, mouse; conditions: hepatocyte-specific expression in lal−/− mice; 5×10^5 cells i.v., two weeks
Source text: LAP-tTA/(TetO)7-CMV-hLAL; lal^−/− (LAP-Tg/KO) triple mice of the FVB/N background was established by cross-breeding of LAP-tTA transgenic mice (Jackson's Laboratory, Bar Harbor, Me.) with a previously generated (tetO)7-CMV-hLAL transgenic mice into lal^−/− mice. This triple transgenic mouse model was hepatocyte-specific Tet-off expression of wild-type hLAL in lal^−/− mice under the control of the LAP. All scientific protocols that involved the use of animals were approved by the Institutional Animal Care and Use Committee of Indiana University School of Medicine and followed guidelines established by the Panel on Euthanasia of the American Veterinary Medical Association. Animals were housed in a secured animal facility at Indiana University School of Medicine.
Tissues from the liver, intestine, and lung were collected after mice were anesthetized. All tissues were washed with phosphate-buffered saline and dehydrated by a series of increasing ethanol concentrations, followed by paraffin embedding. Sections were stained with anti-Ki67 antibody, anti-LAL antibody, and anti-F4/80 antibody by the histologic core.
For experimental metastasis, 5×10^5 B16 melanoma cells in 200 μL of phosphate-buffered saline were injected into the mice via tail vein. Two weeks after the injection, the mice were sacrificed, and the livers and lungs were harvested for examination of metastasis.

[3] = pre-treated lal−/− Ly6G+ cells + B16 i.v.

| Molecule | B16 melanoma colonization in the lung (B16 melanoma cells [1]; pre-treated lal+/+ Ly6G+ cells + B16 i.v.) | B16 melanoma colonies in the lungs (B16 melanoma cells [1]; pre-treated lal−/− Ly6G+ cells + B16 i.v. into lal+/+ mice, vs ethanol) | Ki67 positive cells in lung sections (IHC staining) (B16 melanoma cells [1]; [3]) | neoplastic cells in lung sections (H&E staining) (B16 melanoma cells [1]; [3]) | B16 melanoma cell metastasis in liver and lung (B16 melanoma cells [2]) |
| --- | --- | --- | --- | --- | --- |
| 9-hydroxyoctadecadienoic acid [9-HODE] | did not affect B16 melanoma colonization in the lung | less B16 melanoma colonies | less Ki67 positive cells | less neoplastic cells | – |
| hLAL: human lysosomal acid lipase expressed from a doxycycline-controlled tissue-specific transgene in lal−/− mice; never administered as a protein (protein, left off: small tags and cut ends, human lysosomal acid lipase expressed from a doxycycline-controlled tissue-specific transgene in lal−/− mice; never administered as a protein) GPKPVVFLQHGLLADSSNWVTNLANSSLGFILADAGFDVWMGNSRGNTWSRKHKTLSVSQDEFWAFSYDEMAKYDLPASINFILNKTGQEQVYYVGHSQGTTIGFIAFSQIPELAKRIKMFFALGPVASVAFCTSPMAKLGRLPDHLIKDLFGDKEFLPQSAFLKWLGTHVCTHVILKELCGNLCFLLCGFNERNLNMSRVDVYTTHSPAGTSVQNMLHWSQAVKFQKFQAFDWGSSAKNYFHYNQSYPPTYNVKDMLVPTAVWSGGHDWLADVYDVNILLTQITNLVFHESIPEWEHLDFIWGLDAPWRLYNKIINLMRKYQ | – | – | – | – | reduced B16 melanoma cell metastasis |
